Results on 25 compounds are retold here after patent US12370192B2, “Azole-fused pyridazin-3(2H)-one derivatives” (TAKEDA PHARMACEUTICAL COMPANY LIMITED, priority 2019, dated 2025).

The target in test [1] is T1, human GPR139 receptor (Homo sapiens, UniProt Q6DWJ6).
T1 construct: expressed in transfected cells; host or cells: T-REx-CHO (Thermo Fisher Scientific), doxycycline-induced
T1 sequence (Q6DWJ6 1-353): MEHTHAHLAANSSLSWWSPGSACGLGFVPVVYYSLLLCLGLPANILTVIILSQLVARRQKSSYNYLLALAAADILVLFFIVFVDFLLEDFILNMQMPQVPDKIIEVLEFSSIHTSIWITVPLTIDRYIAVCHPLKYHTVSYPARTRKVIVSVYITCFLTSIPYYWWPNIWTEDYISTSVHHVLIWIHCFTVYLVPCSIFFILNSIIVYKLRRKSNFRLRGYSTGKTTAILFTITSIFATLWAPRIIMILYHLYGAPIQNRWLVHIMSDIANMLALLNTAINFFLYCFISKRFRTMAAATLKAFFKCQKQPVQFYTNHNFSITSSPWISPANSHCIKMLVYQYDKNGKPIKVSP
Description: GPR139 Competition Binding (membrane-based, tritium-labeled ligand). To be noted: T-REx-CHO membranes with human GPR139; 6.5 nM tritium-labeled ligand; 11-point curve, 30 μM maximum concentration; read-out: GPR139 Binding Affinity (pKi) (converted). An outline of the steps:
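Membranes came from doxycycline-induced T-REx-CHO cells expressing human GPR139. They were incubated 20 min at room temperature with 6.5 nM tritiated ligand and compound (11 points, top 30 μM) in HEPES pH 7.3 buffer with MgCl2/CaCl2. Filter-bound counts gave Ki by four-parameter fit, reported as pKi.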

Test [2] addresses T1, human GPR139 receptor. Nature of the test: Measurement of GPR139 Activation Via Calcium Signaling (FLIPR, T-REx-CHO cells). The class given is cell-based. To be noted: T-REx-CHO cells stably expressing human GPR139, 11-point dose response, 10 μM maximum concentration, read-out: GPR139 Potency (pEC50) (converted). An outline of the steps:
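T-REx-CHO cells stably carrying human GPR139 under tetracycline control, induced with 2 μg/mL doxycycline for 17 h at 37 °C, loaded 40 min with Calcium 5 dye plus probenecid in HBSS/HEPES pH 7.4. Agonist added as 11-point series (10 μM top); fluorescence read 1 min; pEC50 from four-parameter fit.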

As for `Cc1cc(C)c([C@H](C)NC(=O)Cn2nc(C)c3c(C)nn(C4CC4)c3c2=O)c(C)c1` [Example 70, (S)-2-(1-cyclopropyl-3,4-dimethyl-7-oxo-1,7-dihydro-6H-pyrazolo[3,4-d]pyridazin-6-yl)-N-(1-mesitylethyl)acetamide], on human GPR139 receptor [1], the Ki was 0.759 nM. Besides, the EC50 at human GPR139 receptor [2] was 178 nM.
On to `Cc1nn(CC(=O)N[C@@H](C)c2ccc(F)cc2Cl)c(=O)c2c1c(C)nn2C1CC1` [Example 71, (S)—N-(1-(2-chloro-4-fluorophenyl)ethyl)-2-(1-cyclopropyl-3,4-dimethyl-7-oxo-1,7-dihydro-6H-pyrazolo[3,4-d]pyridazin-6-yl)acetamide], for which, on human GPR139 receptor [1], the Ki is 0.398 nM. Moreover, the EC50 on human GPR139 receptor [2] was 93.3 nM.
With `Cc1nn(CC(=O)N[C@@H](C)c2ccc(C(F)(F)F)cc2)c(=O)c2cnn(C)c12` [Example 72, (S)-2-(1,7-dimethyl-4-oxo-1,4-dihydro-5H-pyrazolo[3,4-d]pyridazin-5-yl)-N-(1-(4-(trifluoromethyl)phenyl)ethyl)acetamide], the Ki at human GPR139 receptor [1] was 1910 nM. Besides, the EC50 at human GPR139 receptor [2] was 55 nM.
Regarding `Cc1nn(CC(=O)N[C@@H](C)c2ccc(OC(F)(F)F)cc2)c(=O)c2cnn(C)c12` [Example 73, (S)-2-(1,7-dimethyl-4-oxo-1,4-dihydro-5H-pyrazolo[3,4-d]pyridazin-5-yl)-N-(1-(4-(trifluoromethoxy)phenyl)ethyl)acetamide], on human GPR139 receptor [1], the Ki was 3470 nM. The EC50 at human GPR139 receptor [2] is 63.1 nM.
In the case of `Cc1ccc([C@H](C)NC(=O)Cn2nc(C)c3c(cnn3C)c2=O)cc1` [Example 74, (S)-2-(1,7-dimethyl-4-oxo-1,4-dihydro-5H-pyrazolo[3,4-d]pyridazin-5-yl)-N-(1-(p-tolyl)ethyl)acetamide], the Ki on human GPR139 receptor [1] was 2450 nM. Besides, the EC50 on human GPR139 receptor [2] was 93.3 nM.
For `Cc1nn(CC(=O)N[C@@H](C)c2ccc(C(F)(F)F)cc2)c(=O)c2cnn(C(C)C)c12` [Example 75, (S)-2-(1-isopropyl-7-methyl-4-oxo-1,4-dihydro-5H-pyrazolo[3,4-d]pyridazin-5-yl)-N-(1-(4-(trifluoromethyl)phenyl)ethyl)acetamide], in that order: 2340 nM and 617 nM.
Turning to `Cc1ccc([C@H](C)NC(=O)Cn2nc(C)c3c(cnn3C3CC3)c2=O)cc1` [Example 80, (S)-2-(1-cyclopropyl-7-methyl-4-oxo-1,4-dihydro-5H-pyrazolo[3,4-d]pyridazin-5-yl)-N-(1-(p-tolyl)ethyl)acetamide], the Ki at human GPR139 receptor [1] is 1660 nM. Moreover, the EC50 on human GPR139 receptor [2] is 251 nM.
In the case of `Cc1ccc([C@H](C)NC(=O)Cn2nc(C)c3c(cnn3C3CC3)c2=O)c(F)c1` [Example 81, (S)-2-(1-cyclopropyl-7-methyl-4-oxo-1,4-dihydro-5H-pyrazolo[3,4-d]pyridazin-5-yl)-N-(1-(2-fluoro-4-methylphenyl)ethyl)acetamide], the Ki on human GPR139 receptor [1] was 331 nM. The EC50 on human GPR139 receptor [2] is 145 nM.
In the case of `Cc1ccc([C@H](C)NC(=O)Cn2nc(C)c3c(cnn3C)c2=O)c(F)c1` [Example 82], the Ki at human GPR139 receptor [1] is 550 nM. At human GPR139 receptor [2], the EC50 was 41.7 nM.
On to `Cc1nn(C2CC2)c2c(=O)n(CC(=O)N3CCCC3c3ccc(Cl)cc3)ncc12` (centres unmarked) [Example 85, 6-(2-(2-(4-chlorophenyl)pyrrolidin-1-yl)-2-oxoethyl)-1-cyclopropyl-3-methyl-1,6-dihydro-7H-pyrazolo[3,4-d]pyridazin-7-one], for which, on human GPR139 receptor [1], the Ki is 55 nM. Besides, at human GPR139 receptor [2], the EC50 is 741 nM.
For `Cc1ccc([C@H](C)NC(=O)Cn2ncc3c(cnn3C(C)C)c2=O)c(F)c1` [Example 88, (S)—N-(1-(2-fluoro-4-methylphenyl)ethyl)-2-(1-isopropyl-4-oxo-1,4-dihydro-5H-pyrazolo[3,4-d]pyridazin-5-yl)acetamide], at human GPR139 receptor [1], the Ki is 676 nM. For the same compound, the EC50 on human GPR139 receptor [2] was 77.6 nM.
Consider `Cc1ccc([C@H](C)NC(=O)Cn2ncc3c(cnn3C(C)C)c2=O)cc1` [Example 89, (S)-2-(1-isopropyl-4-oxo-1,4-dihydro-5H-pyrazolo[3,4-d]pyridazin-5-yl)-N-(1-(p-tolyl)ethyl)acetamide], for which, on human GPR139 receptor [1], the Ki was 2190 nM. The EC50 on human GPR139 receptor [2] was 44.7 nM.
`Cc1ccc([C@H](C)NC(=O)Cn2ncc3c(c(C)nn3C(C)C)c2=O)c(F)c1` [Example 92, (S)—N-(1-(2-fluoro-4-methylphenyl)ethyl)-2-(1-isopropyl-3-methyl-4-oxo-1,4-dihydro-5H-pyrazolo[3,4-d]pyridazin-5-yl)acetamide]: on human GPR139 receptor [1], the Ki is 100 nM. Further, on human GPR139 receptor [2], the EC50 was 57.5 nM.
For `Cc1nn(C(C)C)c2cnn(CC(=O)N[C@@H](C)c3ccc(OC(F)(F)F)cc3)c(=O)c12` [Example 93, (S)-2-(1-isopropyl-3-methyl-4-oxo-1,4-dihydro-5H-pyrazolo[3,4-d]pyridazin-5-yl)-N-(1-(4-(trifluoromethoxy)phenyl)ethyl)acetamide], in that order: 389 nM and 234 nM.
For the compound `Cc1nn(C(C)C)c2cnn(CC(=O)N[C@@H](C)c3ccc(C(F)(F)F)cc3)c(=O)c12` [Example 94, (S)-2-(1-isopropyl-3-methyl-4-oxo-1,4-dihydro-5H-pyrazolo[3,4-d]pyridazin-5-yl)-N-(1-(4-(trifluoromethyl)phenyl)ethyl)acetamide], the Ki at human GPR139 receptor [1] was 309 nM. Also, the EC50 at human GPR139 receptor [2] is 107 nM.
As for `Cc1ccc([C@H](C)NC(=O)Cn2ncc3c(c(C)nn3C)c2=O)c(F)c1` [Example 99], the Ki on human GPR139 receptor [1] was 95.5 nM. Besides, the EC50 on human GPR139 receptor [2] is 123 nM.
Take `Cc1nn(CC(=O)N[C@@H](C)c2ccc(C(F)(F)F)cn2)c(=O)c2c1c(C)nn2C1CC1` [Example 101, (S)-2-(1-cyclopropyl-3,4-dimethyl-7-oxo-1,7-dihydro-6H-pyrazolo[3,4-d]pyridazin-6-yl)-N-(1-(5-(trifluoromethyl)pyridin-2-yl)ethyl)acetamide]: at human GPR139 receptor [1], the Ki is 282 nM. The EC50 on human GPR139 receptor [2] is 398 nM.
As to `Cc1nn(CC(=O)N[C@@H](C)c2ccc(C(F)(F)F)cn2)c(=O)c2c1c(C)nn2C` [Example 102, (S)—N-(1-(5-(trifluoromethyl)pyridin-2-yl)ethyl)-2-(1,3,4-trimethyl-7-oxo-1,7-dihydro-6H-pyrazolo[3,4-d]pyridazin-6-yl)acetamide], the Ki at human GPR139 receptor [1] was 15100 nM. Further, the EC50 on human GPR139 receptor [2] was 209 nM.
Consider `Cc1nn(C(C)C)c2c(=O)n(CC(=O)N[C@@H](C)c3ccc(C(F)(F)F)cn3)ncc12` [Example 103, (S)-2-(1-isopropyl-3-methyl-7-oxo-1,7-dihydro-6H-pyrazolo[3,4-d]pyridazin-6-yl)-N-(1-(5-(trifluoromethyl)pyridin-2-yl)ethyl)acetamide], for which the Ki on human GPR139 receptor [1] was 10000 nM. For the same compound, on human GPR139 receptor [2], the EC50 was 219 nM.
For `Cc1nn(C2CC2)c2cnn(CC(=O)NC(C)c3ccc4c(c3)CCCO4)c(=O)c12` (centres unmarked) [Example 104, N-(1-(chroman-6-yl)ethyl)-2-(1-cyclopropyl-3-methyl-4-oxo-1,4-dihydro-5H-pyrazolo[3,4-d]pyridazin-5-yl)acetamide], in that order: 794 nM and 61.7 nM.
The corresponding values for `Cc1nn(CC(=O)NC(C)c2ccc3c(c2)OCCO3)c(=O)c2c1c(C)nn2C1CC1` (centres unmarked) [Example 105, 2-(1-cyclopropyl-3,4-dimethyl-7-oxo-1,7-dihydro-6H-pyrazolo[3,4-d]pyridazin-6-yl)-N-(1-(2,3-dihydrobenzo[b][1,4]dioxin-6-yl)ethyl)acetamide] are 97.7 nM and 107 nM.
`Cc1nn(C2CC2)c2cnn(CC(=O)NC(C)c3ccc4c(c3)OCCO4)c(=O)c12` (centres unmarked) [Example 106, 2-(1-cyclopropyl-3-methyl-4-oxo-1,4-dihydro-5H-pyrazolo[3,4-d]pyridazin-5-yl)-N-(1-(2,3-dihydrobenzo[b][1,4]dioxin-6-yl)ethyl)acetamide]: on human GPR139 receptor [1], the Ki was 2000 nM. Further, the EC50 at human GPR139 receptor [2] is 57.5 nM.
Regarding `Cc1nn(C2CC2)c2cnn(CC(=O)N[C@@H](C)c3ccc(C(F)(F)F)cc3)c(=O)c12` [Example 107, (S)-2-(1-cyclopropyl-3-methyl-4-oxo-1,4-dihydro-5H-pyrazolo[3,4-d]pyridazin-5-yl)-N-(1-(4-(trifluoromethyl)phenyl)ethyl)acetamide], the Ki on human GPR139 receptor [1] was 245 nM. Further, the EC50 on human GPR139 receptor [2] was 42.7 nM.
The corresponding values for `Cc1ccc([C@H](C)NC(=O)Cn2ncc3c(c(C)nn3C3CC3)c2=O)c(F)c1` [Example 108, (S)-2-(1-cyclopropyl-3-methyl-4-oxo-1,4-dihydro-5H-pyrazolo[3,4-d]pyridazin-5-yl)-N-(1-(2-fluoro-4-methylphenyl)ethyl)acetamide] are 75.9 nM and 34.7 nM.
Take `COc1ccc([C@H](C)NC(=O)Cn2ncc3c(c(C)nn3C3CC3)c2=O)cc1` [Example 110, (S)-2-(1-cyclopropyl-3-methyl-4-oxo-1,4-dihydro-5H-pyrazolo[3,4-d]pyridazin-5-yl)-N-(1-(4-methoxyphenyl)ethyl)acetamide]: the Ki on human GPR139 receptor [1] was 1660 nM. Also, the EC50 on human GPR139 receptor [2] is 69.2 nM.
